Assay results from EP4733299A1, “SULFUR-CONTAINING FUSED RING COMPOUND, PHARMACEUTICAL COMPOSITION CONTAINING SAME, AND PREPARATION METHOD THEREFOR AND USE THEREOF” (Shenzhen Braegen Pharmaceutical Co., Ltd., priority 2023, dated 2024).

Legend:
[1] = target: T1, a-Syn aggregates (Homo sapiens, UniProt P37840, A53T); assay: Binding specificity on brain slices of rotenone-treated SNCA transgenic mice; conditions: brain slices, rotenone-treated SNCA Tg mice; Fig. 2
T1 construct: tissue The Jackson Laboratory 017682; host or cells: brain sections of rotenone-treated transgenic mice
Protocol: To further explore whether the positive compounds selectively bind to Lewy bodies, brain slices from mice were used to test the binding specificity assays.
Staining with a-Synuclein protein coding gene (SNCA) transgenic mice (the Jackson Laboratory; stock numbers: 017682) were treated with rotenone (Oral gavage of rotenone under the following protocol: Mice were treated with 0.1 mL/25 g of vehicle containing 1% methylcellulose (Sigma, Catalog No.: M0512) and 1.25% chloroform (Sigma, Catalog No.: 2432) or a solution containing 0.625 mg/mL of rotenone (ULTRA Scientific, Catalog No.: PST-890) with 1% methylcellulose and 1.25% chloroform. We prepared rotenone solution by dissolving rotenone in chloroform and then diluting into 1% methylcellulose solution while mixing vigorously. Rotenone or vehicle control was orally administered with a 1.2 x 60 mm gavage (Unimed, Switzerland) once a day for 5 days/week, consecutively for 3 months.), which contains abundant LB-like inclusions. Furthermore, brain slices from NFT abundant Tau P301S mice and Aβ-enriched 5 x FAD mice were also used separately.
The brain slices were fixed and incubated for 12 h at 4 °C with primary antibodies followed by incubation with Alexa Fluor 568-, Alexa Fluor 488-, or Alexa Fluor 647-conjugated secondary antibodies (Invitrogen) for 3 h at room temperature. Then stained with ThS (Sigma, Catalog No.: T1892) or candidate compounds at room temperature, 4',6-diamidino-2-phenylindole (DAPI, 1 µg/ml) (Sigma-Aldrich) was used for the nuclear staining. The slides were imaged with Olympus FluoView FV1000 confocal laser scanning microscope using Olympus FluoView software to acquire data.

[2] = target: T2, AT8 (Homo sapiens, UniProt P10636, P618S); assay: In vivo validation: tail vein injection, then staining of brain sections; set-up: species or system Tau P301S mice; conditions: 2 mg/kg tail vein injection; 0.5 hours after administration
T2 construct: tissue The Jackson Laboratory 008169; host or cells: brain of Tau P301S mice, compound injected in vivo, sections made afterwards
Protocol: (§1) In vivo validation of the compounds was performed using 8-month-old wild-type mice (Jiangsu Aniphe Biolaboratory Inc), 12-month-old 5xFAD mice (The Jackson Laboratory; Catalog No.: 034840), 6-month-old Tau P301S mice (The Jackson Laboratory; Catalog No.: 008169), and rotenone-treated α-Syn A53T mice (The Jackson Laboratory; Catalog No.: 017682). All mice were stratified by sex and randomly divided into groups, and the compounds were administered via tail vein injection at a dose of 2 mg/kg. Tissues were harvested and mouse brain sections were prepared 0.5 hours after administration, followed by staining with anti-Aβ (Biolegend; Catalog No.: SIG-39300) or AT8 (Thermo Fisher; Catalog No.: MN1020) together with the compounds, respectively.

[3] = target: T3, α-Synuclein aggregates (Homo sapiens, UniProt P37840); assay: Fluorescence binding assay with protein aggregates (fluorescence spectrophotometer); conditions: compound 5 µM, 37°C, 5 min
T3 construct: purchased Proteos Inc RP-002
Protocol: (§2) First, the compound was a final concentration of 5 µM by dissolved in 50 mM Tris-buffer (pH 7.0) with 0.0025% (v/v) DMSO. Then, Aβ, α-Synuclein, and Tau aggregates were added, with their final concentrations being 0.02, 0.04, 0.08, 0.16, 0.32, 0.64, and 1.28 µM, respectively. Subsequently, the fluorescence measurements were detected using a fluorescence spectrophotometer (Horiba, Fluorolog3).
α-synuclein Aggregates (Proteos Inc; catalog No.: RP-002).
(§3) Tau aggregates: The cDNA sequence of Tau was inserted into a plasmid carrying a GST tag, which was then transfected into BL21 bacteria for protein expression. Bacterial pellets were resuspended in high-salt buffer (0.75 M NaCl, 50 mM Tris, pH 7.4, 1 mM EDTA), sonicated, and centrifuged at 70,000 x g for 30 min. The supernatants were applied onto a Glutathione sepharose beads column (GE Healthcare) and purified by GST tag. Thrombin was used to remove the GST tag. The protein was dialyzed with FPLC buffer (50 mM NaCl, 50 mM Tris- HCl pH 7.4). The protein was filtered through a 0.22 µm syringe filter. The concentration of Tau was adjusted to 3 mg/mL, 12.5 µM heparin was added, and the mixture was shaken at 37 °C and 300 rpm for 7 days to prepare Tau aggregates. • Incubation Concentrations: 0.02, 0.04, 0.08, 0.16, 0.32, 0.64, and 1.28 µM; • Incubation Temperature: 37°C; • Incubation Duration: 5 min; • Detection Wavelengths: [formula]
(§4) Statistical analysis was performed using GraphPad Prism® version 8.2.1.

[4] = target: T4, α-Syn-p129 or α-Syn aggregates (Homo sapiens, UniProt P37840, A53T); assay: In vivo validation: tail vein injection, then staining of brain sections; set-up: species or system rotenone-treated α-Syn A53T mice; conditions: 2 mg/kg tail vein injection; 0.5 hours after administration
T4 construct: tissue The Jackson Laboratory 017682; host or cells: brain sections of rotenone-treated transgenic mice
Protocol: as §1

[5] = target: Tau aggregates (Homo sapiens, UniProt P10636); assay: Fluorescence binding assay with protein aggregates (fluorescence spectrophotometer); conditions: 5 min; for Ratio / α-Synuclein: Kd for Tau to Kd for α-Synuclein; for Kd: Tau aggregates, compound 5 µM, 37°C
Protocol: as §2, §3, §4

[6] = target: T5, p-α-Syn S129 (Homo sapiens, UniProt P37840); assay: Ex vivo staining of human DLB patient brain sections; type: binding; conditions: DLB patient brain slides; Fig. 3
T5 construct: from tissue; host or cells: human DLB patient brain sections
Protocol: The ex vivo screening was extended into human DLB, and AD patient samples. Neurodegenerative diseases of DLB belong to synucleino-pathies with well-defined Lewy bodies. Therefore, the positive compounds should show robust signals with LBs and LNs.
For immunohistochemical staining, deparaffinized and antigen-retrieved 20 µm-thick human brain sections were treated with 0.3% H2O2 at room temperature for 10 min. Subsequently, the sections were washed in PBS with 0.3% Triton X-100 3 times and then blocked with 1% BSA for 30 min, followed by overnight incubation with anti-Aβ/AT8/α-Syn pS129 antibody at 4 °C. The signal was developed using a Histostain-SP kit (Invitrogen, Catalog No.: 95-9943). After washing, the sections were covered with a glass cover using mounting solution.

T2 sequence (P10636 1-412 isoform P10636-7 P272S): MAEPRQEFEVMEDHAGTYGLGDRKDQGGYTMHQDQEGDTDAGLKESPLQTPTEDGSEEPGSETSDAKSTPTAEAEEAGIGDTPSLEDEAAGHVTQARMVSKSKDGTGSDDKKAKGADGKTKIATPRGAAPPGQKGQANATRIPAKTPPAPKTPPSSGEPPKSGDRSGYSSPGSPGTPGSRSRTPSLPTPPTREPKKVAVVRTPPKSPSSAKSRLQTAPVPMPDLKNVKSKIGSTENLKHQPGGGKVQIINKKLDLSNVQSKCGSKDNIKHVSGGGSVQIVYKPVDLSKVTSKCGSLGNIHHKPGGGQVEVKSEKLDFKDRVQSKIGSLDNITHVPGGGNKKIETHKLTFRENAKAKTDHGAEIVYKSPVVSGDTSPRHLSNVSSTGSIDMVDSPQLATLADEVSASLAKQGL
Sequence of Tau aggregates (P10636 with tags, fused parts or gaps): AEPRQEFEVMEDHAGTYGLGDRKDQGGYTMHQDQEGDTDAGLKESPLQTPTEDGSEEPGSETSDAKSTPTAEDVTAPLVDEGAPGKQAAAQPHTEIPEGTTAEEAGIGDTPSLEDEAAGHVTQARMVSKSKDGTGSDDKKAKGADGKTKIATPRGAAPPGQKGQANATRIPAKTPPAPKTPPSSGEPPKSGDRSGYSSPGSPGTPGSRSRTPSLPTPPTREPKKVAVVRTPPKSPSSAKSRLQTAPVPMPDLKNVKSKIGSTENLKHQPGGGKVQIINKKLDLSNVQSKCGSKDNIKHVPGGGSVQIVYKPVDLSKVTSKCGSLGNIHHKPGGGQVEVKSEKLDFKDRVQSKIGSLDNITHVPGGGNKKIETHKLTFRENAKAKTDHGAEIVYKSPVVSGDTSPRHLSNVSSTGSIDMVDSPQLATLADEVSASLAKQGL

Structure (SMILES): Cc1cc2nc(/C=C/c3ccc(O)c(N)c3)sc2cc1N(C)CCOCCF [Compound C, (E)-2-amino-4-(2-(6-((2-(2-fluoroethoxy)ethyl)(methyl)amino)-5-methylbenzo[d]thiazol-2-yl)vinyl)phenol]
- capture of a-Syn aggregates [1]: sensitively captured a-Syn aggregates
- specific binding to AT8 [2]: no specific binding
- Kd [3]: 314 nM
- co-localization with α-Syn-p129 or α-Syn aggregates [4]: co-localized
- Ratio / α-Synuclein [5]: 2.00
- Kd [5]: 626 nM
- costaining with p-α-Syn S129 [6]: costained

Structure (SMILES): COc1c(/C=C/c2nc3cc(C)c(N(C)CCOCCF)cc3s2)ccc(O)c1Br [Compound E, (E)-2-bromo-4-(2-(6-((2-(2-fluoroethoxy)ethyl)(methyl)amino)-5-methylbenzo[d]thiazol-2-yl)vinyl)-3-methoxyphenol]
- capture of a-Syn aggregates [1]: sensitively captured a-Syn aggregates
- specific binding to AT8 [2]: no specific binding
- Kd [3]: 15.6 nM
- co-localization with α-Syn-p129 or α-Syn aggregates [4]: co-localized
- Ratio / α-Synuclein [5]: 2.34
- Kd [5]: 36.5 nM
- costaining with p-α-Syn S129 [6]: costained

Structure (SMILES): CCN(CCOCCF)c1cc2sc(/C=C/c3ccc(O)c(Br)c3)nc2cc1C [Compound R, (E)-2-bromo-4-(2-(6-(ethyl(2-(2-fluoroethoxy)ethyl)amino)-5-methylbenzo[d]thiazol-2-yl)vinyl)phenol]
- capture of a-Syn aggregates [1]: sensitively captured a-Syn aggregates
- specific binding to AT8 [2]: no specific binding
- Kd [3]: 80.9 nM
- co-localization with α-Syn-p129 or α-Syn aggregates [4]: co-localized
- Ratio / α-Synuclein [5]: 32.13
- Kd [5]: 2600 nM
- costaining with p-α-Syn S129 [6]: costained
